ChEMBL document CHEMBL1201862, “PubChem BioAssay data set” (2004)
Activity calls are given as the source filed them.

How the values were obtained:
[1] = molecular target: Heat shock protein HSP 90-alpha (Homo sapiens, UniProt P07900); experiment: Luminescence-based dose response biochemical high throughput screening assay for inhibitors of the Heat Shock Protein 90 (HSP90). [Related pubchem assays: 1831 (Summary AID.), 1846 (Confirmation screen.), 1789 (Primary screen.)]
[2] = Luminescence Cell-Based Dose Response HTS to Identify Inhibitors of 5'UTR Stem-Loop Driven Prion Protein mRNA Translation in H4 Neuroglioblastoma Cells. [Related pubchem assays: 1827 (Project Summary), 1813 (Primary HTS)]; type: functional
[3] = luciferase reporter signal suppression in cells – H4 neuroglioma cells, luminescence, dose response (AID 1990); type: functional, cell-based
[4] = alpha-synuclein stem-loop luciferase translation blockers – H4 neuroglioma cells, luminescence, confirmation (AID 1988); type: functional, cell-based
Transthyretin = Transthyretin (Homo sapiens, UniProt P02766); experiment: Luminescence-based cell-based high throughput dose response assay to identify activators of Transthyretin (TTR) transcription.; type: functional
[5] = viability loss in CEM21 cells – cell-based, CellTiter-Glo luminescence, cherry-picked, cytotoxicity control for viral fusion inhibitor project, dose response (AID 652042); type: functional;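 further: potency for signal decrease meaning cytotoxicity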
[6] = HIV-1 AD8 envelope cell-cell fusion blockers – cherry-pick, dose response (AID 652062); type: functional, cell-based;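 further: luciferase signal from cell-cell fusion driven by HIV-1 clade B AD8 Env; potency is for inhibitors of fusion seen as a drop in luminescence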
[7] = blockers of HIV-1 envelope-mediated cell-cell fusion – cherry-pick, dose response (AID 652057); type: functional, cell-based
[8] = blockers of HIV-1 ZM109 envelope-driven cell-cell fusion – HeLa effector, CEM target cells, luciferase, cherry-pick, dose response (AID 652058); type: functional, cell-based;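 further: luciferase signal from HIV-1 Env mediated cell-cell fusion of effector and target cells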
[9] = off-target signal loss in HeLa-CEM21 co-culture – HeLa F-luc CTL cells, cherry-picked, counter-screen for HIV-1 Env fusion inhibitor project, dose response (AID 652040); type: functional, cell-based;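 further: potency for signal decrease marking cytotoxic or nonspecific inhibition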
[10] = molecular target: COUP transcription factor 2 (Homo sapiens, UniProt P24468); experiment: Luminescence-based cell-based high throughput dose response assay to identify inhibitors of COUP-TFII (NR2F2).; type: functional;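 further: HEK293 cells transiently cotransfected with COUP-TFII expression vector and reporter; luciferase reporter luminescence driven by COUP-TFII from the pX2-168 reporter plasmid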
[11] = HEK293 Cytotoxicity Assay Measured in Cell-Based System Using Plate Reader - 7071-01_Inhibitor_Dose_CherryPick_Activity_Set2.; type: functional
HEK293 = experiment: viability loss in HEK293T cells – cell-based, ATP luminescence, cherry-pick samples, cytotoxicity control, dose response (AID 687005); type: functional; details: Homo sapiens;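 further: cells exposed to compound for 48 hours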
Kallikrein-7 = Kallikrein-7 (Homo sapiens, UniProt P49862); experiment: Fluorescence Intensity-based biochemical primary high throughput dose response assay to identify activators of kallikrein-7 (K7) zymogen.
[12] = OVCAR8 cell viability loss – plate reader, dry powder samples, PAX8 project, dose response (AID 743197); type: functional, cell-based; details: OVCAR-8
[13] = OVCAR-3 cell viability loss – plate reader, dry powder samples, PAX8 inhibitor project, dose response (AID 743044); type: functional, cell-based
Paired box protein Pax-8 = Paired box protein Pax-8 (Homo sapiens, UniProt Q06710); experiment: PAX8 transcriptional activity inhibition in RMG-I – RMG-I cells, luciferase, cherry-pick, dose response (AID 687027); type: functional, cell-based;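 further: luciferase reporter driven by Pax8 target thyroperoxidase promoter measured by SteadyGlo luminescence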
[14] = molecular target: Potassium channel subfamily K member 3 (Homo sapiens, UniProt O14649); experiment: inhibition of human KCNK3 channel flux – CHO cells, FluxOR thallium flux, SAR follow-up (AID 652212); type: functional
[15] = molecular target: Potassium channel subfamily K member 9 (Homo sapiens, UniProt Q9NPC2); experiment: KCNK9 flux blockade, concentration-response – cell-based, FluxOR thallium flux, selectivity assay for TASK1 inhibitor project, SAR follow-up (AID 652211); type: functional;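 further: potency is for inhibitors of the channel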
[16] = reduced cellular PGC1a acetyl-lysine signal – cell-based, cherry-picked samples, dose response (AID 720514); type: functional;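 further: potency may reflect raised or lowered acetylation signal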
[17] = glucagon-like peptide-1 release potency in STC-1, concentration-response, half-maximal inhibitory concentration in the STC-1 line (AID 1117345); type: functional, cell-based
[18] = Potency on glucagon-like peptide 1 release, dose-response in NCI-H716 cell line, half maximal inhibitory concentration (AID 1117344); type: functional, cell-based

Chain of COUP transcription factor 2 (P24468 whole entry): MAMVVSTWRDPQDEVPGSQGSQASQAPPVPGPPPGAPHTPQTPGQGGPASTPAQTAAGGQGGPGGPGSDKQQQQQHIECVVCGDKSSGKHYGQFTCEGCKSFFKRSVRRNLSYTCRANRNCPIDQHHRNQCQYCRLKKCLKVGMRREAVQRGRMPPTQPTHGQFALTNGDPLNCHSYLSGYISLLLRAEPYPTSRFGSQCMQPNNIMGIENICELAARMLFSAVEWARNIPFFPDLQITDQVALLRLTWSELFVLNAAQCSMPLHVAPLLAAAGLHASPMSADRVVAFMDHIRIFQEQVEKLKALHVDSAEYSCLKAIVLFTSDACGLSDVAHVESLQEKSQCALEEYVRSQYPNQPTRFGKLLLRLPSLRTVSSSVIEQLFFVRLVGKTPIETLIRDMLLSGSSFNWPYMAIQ
Chain of Potassium channel subfamily K member 9 (Q9NPC2 whole entry): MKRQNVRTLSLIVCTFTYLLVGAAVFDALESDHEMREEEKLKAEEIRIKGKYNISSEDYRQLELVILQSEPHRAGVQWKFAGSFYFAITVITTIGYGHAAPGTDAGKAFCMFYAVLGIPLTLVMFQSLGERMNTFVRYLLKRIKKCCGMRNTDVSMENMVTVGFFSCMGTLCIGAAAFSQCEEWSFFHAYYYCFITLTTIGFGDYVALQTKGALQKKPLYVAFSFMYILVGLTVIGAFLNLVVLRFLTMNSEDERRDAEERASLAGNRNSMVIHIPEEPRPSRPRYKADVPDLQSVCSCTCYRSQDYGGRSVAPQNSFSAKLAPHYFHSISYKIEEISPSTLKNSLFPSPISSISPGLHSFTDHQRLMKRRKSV
Chain of Potassium channel subfamily K member 3 (O14649 whole entry): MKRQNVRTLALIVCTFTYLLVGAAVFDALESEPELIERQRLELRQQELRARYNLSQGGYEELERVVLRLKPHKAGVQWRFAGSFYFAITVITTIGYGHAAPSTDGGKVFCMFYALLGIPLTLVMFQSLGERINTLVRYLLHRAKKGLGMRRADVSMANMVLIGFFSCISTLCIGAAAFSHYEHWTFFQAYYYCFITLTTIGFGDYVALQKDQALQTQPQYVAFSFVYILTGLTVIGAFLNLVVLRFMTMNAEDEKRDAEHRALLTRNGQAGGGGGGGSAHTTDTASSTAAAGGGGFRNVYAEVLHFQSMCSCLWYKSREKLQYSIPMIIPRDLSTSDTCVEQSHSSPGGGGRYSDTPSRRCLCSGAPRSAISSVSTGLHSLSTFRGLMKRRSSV
Chain of Paired box protein Pax-8 (Q06710 whole entry): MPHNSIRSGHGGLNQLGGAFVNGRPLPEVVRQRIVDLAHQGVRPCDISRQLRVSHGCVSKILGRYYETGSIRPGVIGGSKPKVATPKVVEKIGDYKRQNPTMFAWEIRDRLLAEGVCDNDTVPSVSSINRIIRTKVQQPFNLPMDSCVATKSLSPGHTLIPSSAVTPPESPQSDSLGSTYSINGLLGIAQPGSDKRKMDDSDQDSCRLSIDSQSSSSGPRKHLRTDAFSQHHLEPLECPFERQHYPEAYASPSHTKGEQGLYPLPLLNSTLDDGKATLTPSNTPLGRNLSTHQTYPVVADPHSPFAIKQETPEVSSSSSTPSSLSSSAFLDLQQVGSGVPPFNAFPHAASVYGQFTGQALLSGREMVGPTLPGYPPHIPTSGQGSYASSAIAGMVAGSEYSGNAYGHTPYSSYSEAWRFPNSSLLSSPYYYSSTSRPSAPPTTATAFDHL
Chain of Kallikrein-7 (P49862 whole entry): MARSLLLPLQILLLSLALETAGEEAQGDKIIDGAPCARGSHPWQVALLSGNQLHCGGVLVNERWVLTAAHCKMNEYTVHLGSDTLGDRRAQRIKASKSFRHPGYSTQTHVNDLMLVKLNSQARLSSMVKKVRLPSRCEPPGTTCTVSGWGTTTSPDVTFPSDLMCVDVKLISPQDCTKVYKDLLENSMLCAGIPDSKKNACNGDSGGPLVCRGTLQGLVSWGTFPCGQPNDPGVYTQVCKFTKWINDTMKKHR

For COc1ccc(-c2cn3c(C)c(C(=O)Nc4cccc(C)n4)sc3n2)cc1, the IC50 [1] was 0.327 µM (active).

For Cc1ccc(CNC(=O)Cc2ccc(-c3ccccc3)cc2)cc1, the EC50 [2] was 10.4 µM (active), the EC50 [3] was > 120 µM (not active) and the EC50 [4] was 6.89 µM (active). The EC50 (Transthyretin) was > 167 µM (inactive).

With Cc1cccc(Nc2nc(-c3c(C)nc4ccccn34)cs2)c1 the AC50 [5] was 29.6 µM (active), the AC50 [6] was 7.63 µM (active) and the AC50 [7] was 6.19 µM (active). For the same compound, the AC50 [8] was 7.64 µM (active), the AC50 [9] was 2.7 µM (active) and the IC50 [10] was 8.41 µM (active).

For CC(NC(=O)COc1ccccc1-c1ccccc1)c1ccccc1 (stereo not given), the AC50 [11] was 35.9 µM (active) and the AC50 (HEK293) was 35.9 µM (active).

In the case of COc1ccccc1C1C=C(c2ccccc2)Nc2nnnn21 (stereo not given), the EC50 (Kallikrein-7) is reported as 12.1 µM (inactive).

For O=C(C[C@H]1CC[C@H]2[C@@H](COC[C@H](O)CN2Cc2cccc(Cl)c2)O1)Nc1nccs1, the AC50 [11] was 16.7 µM (active) and the AC50 (HEK293) was 16.7 µM (active).

For C[C@@H]1CN([C@H](C)CO)C(=O)c2cc(NC(=O)CCC(F)(F)F)ccc2O[C@@H](C)CCCCO[C@@H]1CN(C)Cc1ccc(C(F)(F)F)cc1, the AC50 [12] was 45.3 µM (active), the AC50 [13] was 26.5 µM (active) and the AC50 (Paired box protein Pax-8) was 8.65 µM (active).

With O=C(c1cccs1)C1CCN(c2ncnc3sccc23)CC1 the IC50 [10] was 4.18 µM (active).

For COc1ccccc1C(=O)Nc1cc(NC(=O)c2cccc(C)c2)ccc1F, the IC50 [14] was 0.159 µM (active) and the IC50 [15] was 6.31 µM (active).

In the case of N#Cc1ccc(-c2ccc([C@@H]3[C@H]4CNC[C@@H]3N4Cc3ccc4c(c3)OCO4)cc2)cc1, the AC50 [16] is reported as 16.9 µM (active).

For CCOc1ccccc1NC(=O)c1cccc(NC(=O)c2ccccc2OC)c1, the IC50 [14] was 0.007 µM (active) and the IC50 [15] was 1.18 µM (active).

For Cc1ccccc1Cn1cc(COC(=O)N(C)Cc2ccccc2)nn1, the EC50 (Transthyretin) was > 167 µM (inactive).

For Cc1c(C)n(CCN(C)C)c2ccc(C(=O)OCCN(C)C)cc12 [AMINDOCATE], the IC50 [17] was 1.2 µM (active) and the IC50 [18] was > 40 µM (inactive).

In the case of O=c1[nH]sc2cc(Cl)ccc12 [TICLATONE], the IC50 [17] is reported as > 40 µM (inactive) and the IC50 [18] is reported as > 40 µM (inactive).
